Measured values: patent publication US20140228349A1, “5,7-SUBSTITUTED-IMIDAZO[1,2-C]PYRIMIDINES” (Array BioPharma Inc., priority 2011, published 2014)

Key:
Assay type in all cases: biochemical
JAK2 = target: T1, JAK2 (Homo sapiens, UniProt O60674); experiment: JAK2 Inhibition Assay (Omnia kinase fluorescence peptide substrate); conditions: averaged IC50 ranges; 25 μM (Km app) or 1 mM ATP, 5 nM JAK2
T1 construct: purchased Invitrogen Corporation, Carlsbad, Calif; IVGN PV4288
Description: (§1) The assays described in Examples A, B, C and D for the determination of Tyk2, JAK1, JAK2 and JAK3 kinase activity, respectively, utilized the Omnia® Kinase fluorescence peptide substrate-based technology (Invitrogen). The specific components of the assay mixture are described in Examples A, B, C and D. In these assays, Mg^2+ is chelated upon phosphorylation of the Omnia peptide by the kinase to form a bridge between the chelation-enhanced fluorophore Sox and the phosphate, resulting in an increase in fluorescence emission at 485 nm when excited at […]. The reactions were therefore read at excitation 360 nm and emission was measured at 485 nm every 50 seconds for 45 minutes using a PerkinElmer EnVision Multilabel Plate Reader.
(§2) The final buffer conditions for Tyk2, JAK1, JAK2, and JAK3 assays were as follows: 25 mM HEPES, pH 7.4, 10 mM MgCl2, 0.01% Triton X-100 and 1 mM DTT.
(§3) Compounds were prepared at 50× the final concentration in DMSO by conducting 3-fold serial dilutions from a 500-μM intermediate dilution to give a 10-point dosing curve having a high dose of 10 μM. Two-μL aliquots of these were transferred to a fresh plate for a ten-fold intermediate dilution with assay buffer. Five-μL aliquots of the diluted compounds were then transferred to 20-μL of assay mixtures described in Examples A, B, C and D for a final concentration of DMSO of 2%. A standard or reference compound was typically included on each assay plate to validate that plate. For each plate, percent of control (POC) values were calculated for each well according to the following equation: […]
(§4) IC50's were estimated from the POC's using a standard 4-parameter logistic model:
(§5) The IC50 is defined as the concentration of inhibitor at which the POC equals 50 for the fitted curve.
(§6) Compounds of Formula I were screened for their ability to inhibit JAK2 using the general enzyme inhibition assay method, in which the assay mixture contained 25 μM (Km app) or 1 mM ATP, 10 μM Omnia® Y7 peptide (Catalog #IVGN KNZ3071C, Invitrogen Corporation, Carlsbad, Calif.) and 5 nM JAK2 in a total volume of 20 μL. JAK2 was purchased from Invitrogen Corporation, Carlsbad, Calif. (catalog #IVGN PV4288).

Human Tyk2 kinase domain = target: T2, Human Tyk2 kinase domain (Homo sapiens, UniProt P29597); experiment: Tyk2 Inhibition Assay (Omnia kinase fluorescence peptide substrate); conditions: averaged IC50 ranges; 10 μM (Km app) or 1 mM ATP, 2 nM Tyk2
T2 construct: comprising amino acids 886 to 1187; His10 (10 histidine residues) (C, cleaved yes); made in house
T2 sequence (P29597 886-1187): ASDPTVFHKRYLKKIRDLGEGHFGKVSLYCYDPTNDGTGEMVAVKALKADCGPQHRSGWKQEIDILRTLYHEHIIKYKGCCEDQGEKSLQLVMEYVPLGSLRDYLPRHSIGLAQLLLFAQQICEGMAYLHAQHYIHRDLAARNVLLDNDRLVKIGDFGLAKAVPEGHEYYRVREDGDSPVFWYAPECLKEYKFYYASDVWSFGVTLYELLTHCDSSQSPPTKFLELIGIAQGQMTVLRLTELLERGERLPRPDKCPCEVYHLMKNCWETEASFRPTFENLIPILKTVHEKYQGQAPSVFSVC
Description: as §1, §2, §3, §4, §5
Compounds of Formula I were screened for their ability to inhibit Tyk2 using the general enzyme inhibition assay method, in which the assay mixture contained 10 μM (Km app) or 1 mM ATP, 8 μM Omnia® Y12 peptide (Catalog #IVGN KPZ3121C; Invitrogen Corporation, Carlsbad, Calif.) and 2 nM Tyk2 in a total volume of 20 μL. Human Tyk2 kinase domain, comprising amino acids 886 to 1187 with 10 additional histidine residues (histidine tag) on the carboxy terminus, was expressed and purified from bacculovirus in-house at Array BioPharma Inc. (Boulder, Colo.). The histidine tag was cleaved after purification using standard conditions.

JAK1 = target: T3, JAK1 (Homo sapiens, UniProt P23458); experiment: JAK1 Inhibition Assay (Omnia kinase fluorescence peptide substrate); conditions: averaged IC50 ranges; 40 μM (Km app) or 1 mM ATP, 15 nM JAK1
T3 construct: purchased Invitrogen Corporation, Carlsbad, Calif; IVGN PV4775
T3 sequence (P23458 whole entry): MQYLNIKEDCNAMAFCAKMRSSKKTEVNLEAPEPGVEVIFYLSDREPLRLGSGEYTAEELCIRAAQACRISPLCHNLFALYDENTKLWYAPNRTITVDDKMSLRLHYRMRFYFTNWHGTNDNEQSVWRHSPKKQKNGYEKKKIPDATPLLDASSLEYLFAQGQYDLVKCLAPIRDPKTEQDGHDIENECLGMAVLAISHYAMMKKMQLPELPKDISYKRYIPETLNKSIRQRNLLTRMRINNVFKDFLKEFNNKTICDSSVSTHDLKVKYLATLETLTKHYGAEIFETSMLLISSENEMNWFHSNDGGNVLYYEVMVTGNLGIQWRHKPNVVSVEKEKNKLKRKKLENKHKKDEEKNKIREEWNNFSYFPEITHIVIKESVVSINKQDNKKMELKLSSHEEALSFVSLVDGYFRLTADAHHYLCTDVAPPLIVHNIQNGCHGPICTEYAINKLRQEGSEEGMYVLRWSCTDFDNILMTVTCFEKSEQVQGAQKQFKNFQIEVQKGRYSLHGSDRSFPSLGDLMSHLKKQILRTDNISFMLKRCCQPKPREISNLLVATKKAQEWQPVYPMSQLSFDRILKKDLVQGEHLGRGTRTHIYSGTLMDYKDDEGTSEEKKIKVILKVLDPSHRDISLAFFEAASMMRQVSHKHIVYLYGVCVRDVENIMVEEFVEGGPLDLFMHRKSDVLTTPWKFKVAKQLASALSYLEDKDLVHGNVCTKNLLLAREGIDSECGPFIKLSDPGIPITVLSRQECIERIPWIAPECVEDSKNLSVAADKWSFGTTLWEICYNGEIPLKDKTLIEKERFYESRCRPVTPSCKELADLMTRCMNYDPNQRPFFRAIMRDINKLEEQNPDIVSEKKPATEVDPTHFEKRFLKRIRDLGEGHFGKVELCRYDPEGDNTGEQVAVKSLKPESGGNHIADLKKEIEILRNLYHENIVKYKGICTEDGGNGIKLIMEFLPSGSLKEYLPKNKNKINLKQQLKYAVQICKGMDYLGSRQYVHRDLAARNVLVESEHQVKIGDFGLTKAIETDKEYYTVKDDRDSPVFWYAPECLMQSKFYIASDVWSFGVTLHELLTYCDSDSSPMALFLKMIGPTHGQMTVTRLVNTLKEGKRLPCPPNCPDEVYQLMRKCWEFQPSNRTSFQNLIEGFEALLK
Description: as §1, §2, §3, §4, §5
Compounds of Formula I were screened for their ability to inhibit JAK1 using the general enzyme inhibition assay method, in which the assay mixture contained 40 μM (Km app) or 1 mM ATP, 8 μM Omnia® Y12 peptide (Catalog #IVGN KPZ3121C; Invitrogen Corporation, Carlsbad, Calif.) and 15 nM JAK1 in a total volume of 20 μL. JAK1 was purchased from Invitrogen Corporation, Carlsbad, Calif. (catalog #IVGN PV4775).

JAK3 = target: T4, JAK3 (Homo sapiens, UniProt P52333); experiment: JAK3 Inhibition Assay (Omnia kinase fluorescence peptide substrate); conditions: averaged IC50 ranges; 10 μM (Km app) or 1 mM ATP, 2.5 nM JAK3
T4 construct: purchased Invitrogen Corporation, Carlsbad, Calif; IVGN PV4080
T4 sequence (P52333 1-1124): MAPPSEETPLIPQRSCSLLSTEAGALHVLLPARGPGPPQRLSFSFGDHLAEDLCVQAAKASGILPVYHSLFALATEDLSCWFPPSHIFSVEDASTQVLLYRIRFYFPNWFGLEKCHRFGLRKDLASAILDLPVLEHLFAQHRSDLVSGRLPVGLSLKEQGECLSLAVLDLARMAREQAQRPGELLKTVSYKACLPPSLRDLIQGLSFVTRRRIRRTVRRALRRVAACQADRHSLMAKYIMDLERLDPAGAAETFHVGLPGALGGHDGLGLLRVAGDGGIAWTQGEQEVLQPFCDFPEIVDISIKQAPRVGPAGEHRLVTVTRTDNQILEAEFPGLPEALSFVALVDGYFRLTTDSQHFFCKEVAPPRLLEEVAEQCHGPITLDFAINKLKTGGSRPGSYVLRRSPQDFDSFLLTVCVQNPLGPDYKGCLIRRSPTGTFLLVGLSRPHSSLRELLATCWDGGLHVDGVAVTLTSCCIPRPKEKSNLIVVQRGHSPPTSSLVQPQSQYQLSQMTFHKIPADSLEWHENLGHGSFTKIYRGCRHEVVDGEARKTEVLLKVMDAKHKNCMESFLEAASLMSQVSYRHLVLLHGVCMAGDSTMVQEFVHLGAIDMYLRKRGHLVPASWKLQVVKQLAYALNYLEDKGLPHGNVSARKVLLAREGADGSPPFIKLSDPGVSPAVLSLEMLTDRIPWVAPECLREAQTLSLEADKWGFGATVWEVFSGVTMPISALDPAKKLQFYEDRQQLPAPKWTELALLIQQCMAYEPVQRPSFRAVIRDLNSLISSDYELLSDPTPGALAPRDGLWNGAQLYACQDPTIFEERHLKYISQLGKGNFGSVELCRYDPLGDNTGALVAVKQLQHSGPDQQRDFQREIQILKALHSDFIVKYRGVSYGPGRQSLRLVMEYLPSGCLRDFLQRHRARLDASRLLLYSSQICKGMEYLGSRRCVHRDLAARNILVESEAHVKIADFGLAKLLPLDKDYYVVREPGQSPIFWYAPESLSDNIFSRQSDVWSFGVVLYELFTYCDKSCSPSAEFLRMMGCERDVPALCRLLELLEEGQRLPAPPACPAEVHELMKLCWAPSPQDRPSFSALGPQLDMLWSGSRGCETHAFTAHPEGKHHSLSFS
Description: as §1, §2, §3, §4, §5
as §6, with “JAK3” for “JAK2”, “10” for “25”, “2.5” for “5”, “PV4080).” for “PV4288).”

T1 sequence (O60674 whole entry): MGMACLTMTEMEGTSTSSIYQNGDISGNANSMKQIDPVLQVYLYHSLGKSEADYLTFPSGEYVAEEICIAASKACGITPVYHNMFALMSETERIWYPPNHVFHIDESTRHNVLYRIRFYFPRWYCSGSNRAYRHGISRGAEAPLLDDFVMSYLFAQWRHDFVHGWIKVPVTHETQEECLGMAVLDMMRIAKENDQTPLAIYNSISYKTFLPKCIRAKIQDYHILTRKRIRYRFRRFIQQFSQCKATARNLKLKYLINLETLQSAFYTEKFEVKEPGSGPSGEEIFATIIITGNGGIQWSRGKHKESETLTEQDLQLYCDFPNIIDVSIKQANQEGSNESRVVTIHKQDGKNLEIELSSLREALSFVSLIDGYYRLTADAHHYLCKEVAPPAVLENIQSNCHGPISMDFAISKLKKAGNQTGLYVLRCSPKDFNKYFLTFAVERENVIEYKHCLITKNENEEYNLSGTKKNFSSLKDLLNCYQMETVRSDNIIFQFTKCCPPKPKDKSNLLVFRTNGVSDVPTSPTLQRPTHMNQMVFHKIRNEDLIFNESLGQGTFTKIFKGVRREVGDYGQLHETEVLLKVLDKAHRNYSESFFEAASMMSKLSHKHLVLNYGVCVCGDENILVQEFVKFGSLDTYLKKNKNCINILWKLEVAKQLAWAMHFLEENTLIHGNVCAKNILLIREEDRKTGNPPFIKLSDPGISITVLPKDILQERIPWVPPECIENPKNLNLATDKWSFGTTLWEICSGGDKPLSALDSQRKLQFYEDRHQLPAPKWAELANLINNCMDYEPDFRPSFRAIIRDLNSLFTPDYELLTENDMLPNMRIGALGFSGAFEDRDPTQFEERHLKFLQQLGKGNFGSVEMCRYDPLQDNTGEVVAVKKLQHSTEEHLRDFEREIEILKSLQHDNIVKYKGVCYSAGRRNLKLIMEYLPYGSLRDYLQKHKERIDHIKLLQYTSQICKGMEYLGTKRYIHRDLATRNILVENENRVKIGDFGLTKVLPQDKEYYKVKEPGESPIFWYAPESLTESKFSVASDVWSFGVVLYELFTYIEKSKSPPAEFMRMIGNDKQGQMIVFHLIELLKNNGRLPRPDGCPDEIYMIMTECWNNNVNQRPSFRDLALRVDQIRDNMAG

| Structure (SMILES) | IC50 (JAK2) [nM] | IC50 (Human Tyk2 kinase domain) [nM] | IC50 (JAK1) [nM] | IC50 (JAK3) [nM] |
| --- | --- | --- | --- | --- |
| Cn1cc(-c2cc3nccn3c(-c3ccn(C4(CCF)CN(S(=O)(=O)C(F)(F)F)C4)c3)n2)cn1 [Example 26, 5-(1-(3-(2-fluoroethyl)-1-((trifluoromethyl)sulfonyl)azetidin-3-yl)-1H-pyrrol-3-yl)-7-(1-methyl-1H-pyrazol-4-yl)imidazo[1,2-c]pyrimidine] | 10 to 100 | < 10 | 10 to 100 | 10 to 100 |
| C=CC1(n2ccc(-c3nc(-c4cnn(C)c4)cc4nccn34)c2)CN(S(=O)(=O)C(F)(F)F)C1 [Example 27, 7-(1-methyl-1H-pyrazol-4-yl)-5-(1-(1-((trifluoromethyl)sulfonyl)-3-vinylazetidin-3-yl)-1H-pyrrol-3-yl)imidazo[1,2-c]pyrimidine] | 10 to 100 | < 10 | 10 to 100 | 10 to 100 |
| Cn1cc(-c2cc3nccn3c(-c3ccn([C@H](CCF)[C@@H]4CC4(F)F)c3)n2)cn1 [Example 28, 5-(1-((R)-1-((S)-2,2-difluorocyclopropyl)-3-fluoropropyl)-1H-pyrrol-3-yl)-7-(1-methyl-1H-pyrazol-4-yl)imidazo[1,2-c]pyrimidine] | 10 to 100 | 10 to 100 | 100 to 1000 | 100 to 1000 |
| Cn1cc(-c2cc3nccn3c(-c3cnn(C4(CC=C(F)F)CN(S(=O)(=O)C(F)(F)F)C4)c3)n2)cn1 [Example 32, 5-(1-(3-(3,3-difluoroallyl)-1-((trifluoromethyl)sulfonyl)azetidin-3-yl)-1H-pyrazol-4-yl)-7-(1-methyl-1H-pyrazol-4-yl)imidazo[1,2-c]pyrimidine] | < 10 | < 10 | < 10 | 10 to 100 |
| CCOCCC1(n2cc(-c3nc(-c4cnn(C)c4)cc4nccn34)cn2)CN(S(=O)(=O)C(F)(F)F)C1 [Example 33, 5-(1-(3-(2-ethoxyethyl)-1-((trifluoromethyl)sulfonyl)azetidin-3-yl)-1H-pyrazol-4-yl)-7-(1-methyl-1H-pyrazol-4-yl)imidazo[1,2-c]pyrimidine] | 10 to 100 | 10 to 100 | 10 to 100 | 100 to 1000 |
| Cn1cc(-c2cc3nccn3c(-c3cnn(C4CCCC4)c3)n2)cn1 [Example 34, 5-(1-cyclopentyl-1H-pyrazol-4-yl)-7-(1-methyl-1H-pyrazol-4-yl)imidazo[1,2-c]pyrimidine] | 100 to 1000 | 100 to 1000 | > 1000 | > 1000 |

Next, values leading:

| IC50 (JAK2) [nM] | IC50 (Human Tyk2 kinase domain) [nM] | IC50 (JAK1) [nM] | IC50 (JAK3) [nM] | Structure (SMILES) |
| --- | --- | --- | --- | --- |
| 10 to 100 | < 10 | 10 to 100 | 10 to 100 | Cn1cc(-c2cc3nccn3c(-c3ccn(C(CCF)C4CC4)c3)n2)cn1 (stereo not shown) [Example 25, 5-(1-(1-cyclopropyl-3-fluoropropyl)-1H-pyrrol-3-yl)-7-(1-methyl-1H-pyrazol-4-yl)imidazo[1,2-c]pyrimidine] |
| 10 to 100 | 10 to 100 | 100 to 1000 | 100 to 1000 | Cn1cc(-c2cc3nccn3c(-c3cnn(C(CCCF)C4CC4)c3)n2)cn1 (stereo not shown) [Example 30, 5-(1-(1-cyclopropyl-4-fluorobutyl)-1H-pyrazol-4-yl)-7-(1-methyl-1H-pyrazol-4-yl)imidazo[1,2-c]pyrimidine] |
| 100 to 1000 | 100 to 1000 | 100 to 1000 | 100 to 1000 | COCCC(C1CC1(F)F)n1cc(-c2nc(-c3cnn(C)c3)cc3nccn23)cn1 (stereo not shown) [Example 31] |
| > 1000 | 100 to 1000 | > 1000 | > 1000 | Cn1cc(-c2cc3nccn3c(-c3cnn(C(CCO)C4CC4(F)F)c3)n2)cn1 (stereo not shown) [Example 35, 3-(2,2-difluorocyclopropyl)-3-(4-(7-(1-methyl-1H-pyrazol-4-yl)imidazo[1,2-c]pyrimidin-5-yl)-1H-pyrazol-1-yl)propan-1-ol] |
| 10 to 100 | < 10 | 100 to 1000 | 100 to 1000 | Cn1cc(-c2cc3nccn3c(-c3cnn([C@H](CCF)C4CCC4)c3)n2)cn1 [Example 36, (R)-5-(1-(1-cyclobutyl-3-fluoropropyl)-1H-pyrazol-4-yl)-7-(1-methyl-1H-pyrazol-4-yl)imidazo[1,2-c]pyrimidine] |
| 100 to 1000 | 10 to 100 | 100 to 1000 | 100 to 1000 | Cn1cc(-c2cc3nccn3c(-c3cnn([C@@H](CCF)C4CCC4)c3)n2)cn1 [Example 37, (S)-5-(1-(1-cyclobutyl-3-fluoropropyl)-1H-pyrazol-4-yl)-7-(1-methyl-1H-pyrazol-4-yl)imidazo[1,2-c]pyrimidine] |
| 100 to 1000 | 100 to 1000 | > 1000 | > 1000 | C/C=C/[C@H](C1CC1)n1cc(-c2nc(-c3cnn(C)c3)cc3nccn23)cn1 [Example 38, (S,E)-5-(1-(1-cyclopropylbut-2-en-1-yl)-1H-pyrazol-4-yl)-7-(1-methyl-1H-pyrazol-4-yl)imidazo[1,2-c]pyrimidine] |
